Test results as given in patent US20140094446A1, “Cyclic Amino Acids for the Treatment of Pain” (Therexcell Pharma Inc., priority 2008, published 2014).
“Also recorded” adds a separate entry of the source. Marks after values point to notes of the source that are not given here.

Assays:
mice = assay: Sedation observed during the formalin foot test, intrathecal application
Experimental: At the same time as the analgesia was accessed, the sedation effects of ACBC were determined in the acute and chronic peripheral pain formalin foot model. […] The mice were monitored for 40 min for sedation. aCSF and morphine controls were also tested. The presence or absence of sedation was determined by an observer blinded to the treatment based on degree of spontaneous activity, posture and response to normal stimuli.

formalin foot mice [1] = assay: Formalin foot acute and chronic peripheral pain model, subcutaneous injection, up and down method; type: in vivo; conditions: Mus musculus, sc; subcutaneously, 5 minutes prior to formalin; up and down method of Dixon and Mood; block = 60% decrease of cumulated licking; read-out: ED50 for the reduction of paw licking by 60%
Experimental: This model involves pre-treatment with the test compound and injection of formalin (5% in 20 microliters) into the right hindpaw of mice. ACBC was injected subcutaneously 5 minutes prior to formalin injection. […] The up and down method of Dixon and Mood was used to establish the ED50.

formalin foot mice [2] = assay: Formalin foot acute and chronic peripheral pain model, intrathecal application
[3] = tested on: Neurons of the ventrobasal nuclei (thalamocortical neurons); assay: Current- and voltage-clamp recording of thalamic neurons in in vitro slice preparations; conditions: for equilibrium potential for the drug (intersection of drug and control I-V curves): voltage clamp, vs aCSF control curve
[4] = ACBC 5 μL of 250 μM 5 minutes before formalin 5% in 20 μL hindpaw, N=5, P<0.05 vs control
[5] = ACBC 1 μM, normalized to control 5 minutes prior to drug application, single neuron

| SMILES | behavioral toxicity (mice; mouse, in vivo) | sedation / gross appearance and behavior (in words) (mice; mouse, in vivo) | Number of mice with sedation (mice; mouse, in vivo, 40 min) | ED50 (formalin foot mice [1]) [mg/kg] | phase I licking (early phase, acute pain) (formalin foot mice [2]; [4]) | phase II licking (late phase, chronic pain) (formalin foot mice [2]; [4]) | cumulative paw licking (formalin foot mice [2]; ACBC 5 μL of 250 μM, monitored 40 minutes, p<0.05) | analgesia compared with morphine, acute and chronic phases (formalin foot mice [2]; formalin foot test) | slope of the I-V curve ([3]; ACBC 1 μM) | holding current 20 minutes after application ([3]; ACBC 1 μM, 3 min application, voltage-clamped at −60 mV, control 33 pA) [pA] | Input resistance (Ri) [3, 5] | Membrane potential (Vm) [3, 5] | tonic firing evoked by current pulse injection ([3]; ACBC 1 μM, ventrobasal thalamus, holding potential −60 mV) | equilibrium potential for the drug (intersection of drug and control I-V curves) ([3]; ACBC 1 μM) [mV] | persistence of induced outward current ([3]; voltage clamped neurons) | slope of the I-V curve ([3]; Glycine 150 μM) | equilibrium potential for the drug (intersection of drug and control I-V curves) ([3]; Glycine 150 μM) [mV] | sedation / gross appearance and behavior (in words) (mice; intrathecal, acute and chronic phase of formalin foot test) | Number of mice with sedation (mice; of 5 mice, intrathecal (ACBC 5 μL of 250 μM), monitored 40 min, blinded observer) |
| --- | --- | --- | --- | --- | --- | --- | --- | --- | --- | --- | --- | --- | --- | --- | --- | --- | --- | --- | --- |
| NC1(C(=O)O)CCC1 [ACBC, 1-amino-cyclobutane-1-carboxylic acid] | no observed behavioral toxicity | No sedation occurred | 0* | 94 | significantly reduced; also recorded: greatly reduces | significantly reduced; also recorded: greatly reduces | significantly reduced | equal to that produced by morphine | increased the slope of the I-V curve | 153 | increase in membrane input resistance; also recorded: decreased | decreased | depressed action potential firing; also recorded: depressed tonic firing | −92 | greater than 60 minutes |  |  |  |  |
| NCC(=O)O [Glycine, reference compound] |  |  |  |  |  |  |  |  |  |  |  |  |  |  |  | increased the slope of the I-V curve | −53 |  |  |
| CN1CC[C@]23c4c5ccc(O)c4O[C@H]2[C@@H](O)C=C[C@H]3[C@H]1C5 [Morphine, reference compound] |  |  |  |  | Morphine <control |  |  |  |  |  |  |  |  |  |  |  |  | nearly immobile | 5 |
